Measurements reported in ChEMBL document CHEMBL1201862, “PubChem BioAssay data set” (2004).
Activity calls are given as the source filed them.

Columns and labels:
Paired box protein Pax-8 = Paired box protein Pax-8 (Homo sapiens, UniProt Q06710); assay: PAX8 transcriptional activity inhibition in RMG-I – RMG-I cells, luciferase, cherry-pick, dose response (AID 687027); type: functional, cell-based;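 also: luciferase reporter driven by Pax8 target thyroperoxidase promoter measured by SteadyGlo luminescence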
Paired box protein Pax-8, sequence (Q06710 whole entry): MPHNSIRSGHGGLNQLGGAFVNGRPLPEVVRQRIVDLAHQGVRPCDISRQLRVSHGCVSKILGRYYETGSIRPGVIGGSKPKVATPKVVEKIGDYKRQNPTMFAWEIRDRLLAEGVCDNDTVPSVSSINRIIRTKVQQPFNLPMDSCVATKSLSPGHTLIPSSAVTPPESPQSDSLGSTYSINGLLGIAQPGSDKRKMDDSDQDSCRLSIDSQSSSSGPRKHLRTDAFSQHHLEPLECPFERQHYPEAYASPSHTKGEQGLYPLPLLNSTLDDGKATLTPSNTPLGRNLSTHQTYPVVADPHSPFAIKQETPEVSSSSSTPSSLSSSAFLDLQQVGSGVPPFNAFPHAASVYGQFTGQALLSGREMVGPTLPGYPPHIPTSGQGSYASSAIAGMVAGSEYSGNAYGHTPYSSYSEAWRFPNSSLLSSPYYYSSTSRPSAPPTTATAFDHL

[1] = biological target: T1, Luciferin 4-monooxygenase (Photinus pyralis, UniProt P08659); assay: inhibition of purified Photinus pyralis luciferase – biochemical, luminescence, dose response (AID 1891)
T1 sequence (P08659 whole entry): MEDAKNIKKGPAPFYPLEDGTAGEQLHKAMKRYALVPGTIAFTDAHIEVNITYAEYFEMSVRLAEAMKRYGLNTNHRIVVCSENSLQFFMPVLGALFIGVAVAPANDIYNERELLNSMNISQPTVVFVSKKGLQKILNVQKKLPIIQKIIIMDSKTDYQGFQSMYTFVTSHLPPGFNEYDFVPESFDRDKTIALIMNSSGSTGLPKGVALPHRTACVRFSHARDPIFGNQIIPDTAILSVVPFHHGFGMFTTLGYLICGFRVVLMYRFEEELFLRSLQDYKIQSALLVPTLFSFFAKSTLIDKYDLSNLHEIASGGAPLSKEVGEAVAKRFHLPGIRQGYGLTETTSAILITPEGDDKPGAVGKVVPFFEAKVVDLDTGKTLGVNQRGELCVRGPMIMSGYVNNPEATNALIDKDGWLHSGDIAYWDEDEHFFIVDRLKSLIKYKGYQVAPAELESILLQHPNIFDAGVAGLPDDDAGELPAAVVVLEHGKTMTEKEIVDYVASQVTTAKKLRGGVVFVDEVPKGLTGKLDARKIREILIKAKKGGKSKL

[2] = biological target: T1, Luciferin 4-monooxygenase; assay: inhibition of purified Photinus pyralis luciferase – biochemical, dry powder samples, plate reader, dose response (AID 588451)
[3] = Luminescence Cell-Based Dose Confirmation HTS to Identify Inhibitors of Platelet Dense Granule Release. [Related pubchem assays: 1663 (Primary HTS), 1678 (Summary of Project)]; type: functional
H4 [4] = assay: Amyloid Precursor 5' UTR neuroblastoma cell reporter line Measured in Cell-Based System Using Plate Reader - 2078-04_Inhibitor_Dose_DryPowder_Activity. [Related pubchem assays (depositor defined):AID488894]; type: functional; details: Homo sapiens
[5] = biological target: Cyclin-dependent kinase 5/CDK5 activator 1 (Homo sapiens, UniProt Q00535); assay: blockade of human CDK5 activity – biochemical, cherry-picked samples, set 2, dose response (AID 504545)
Cyclin-dependent kinase 5/CDK5 activator 1, sequence (Q00535 whole entry): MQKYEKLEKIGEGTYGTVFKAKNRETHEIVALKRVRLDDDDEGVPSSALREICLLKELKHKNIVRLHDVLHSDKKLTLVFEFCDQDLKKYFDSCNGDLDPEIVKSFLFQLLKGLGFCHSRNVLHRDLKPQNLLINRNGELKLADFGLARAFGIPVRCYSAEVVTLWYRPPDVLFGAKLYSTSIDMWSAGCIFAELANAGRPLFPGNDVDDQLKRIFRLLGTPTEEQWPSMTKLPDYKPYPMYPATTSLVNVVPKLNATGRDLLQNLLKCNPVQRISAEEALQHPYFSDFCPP
Cyclin-dependent kinase 5/CDK5 activator 1, sequence (Q15078 whole entry, further chain): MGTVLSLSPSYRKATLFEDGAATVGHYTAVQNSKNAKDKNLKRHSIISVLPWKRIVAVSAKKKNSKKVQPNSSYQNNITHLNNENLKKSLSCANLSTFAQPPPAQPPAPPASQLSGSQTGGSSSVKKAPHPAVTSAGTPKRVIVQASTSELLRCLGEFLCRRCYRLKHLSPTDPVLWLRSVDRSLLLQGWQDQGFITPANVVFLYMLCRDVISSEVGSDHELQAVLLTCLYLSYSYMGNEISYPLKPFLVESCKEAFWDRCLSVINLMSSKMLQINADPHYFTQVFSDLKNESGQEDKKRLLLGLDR

[6] = general cell-killing toxicity readout – plate reader, dry powder samples, cytotoxicity control for PAX8 inhibitor project, dose response (AID 743021); type: functional, cell-based
H4 [7] = assay: Inhibitors of Prion Protein 5' UTR mRNA Measured in Cell-Based System Using Plate Reader - 2078-01_Inhibitor_Dose_DryPowder_Activity. [Related pubchem assays (depositor defined):AID488894]; type: functional; details: Homo sapiens
[8] = biological target: Melanin-concentrating hormone receptor 1 (Homo sapiens, UniProt Q99705); assay: Late-stage fluorescence-based counterscreen for antagonists of the G-protein coupled receptor 7 (GPR7): cell-based dose response assay to identify antagonists of the melanin-concentrating hormone receptor 1 (MCHR1) Set 5.; type: functional
Melanin-concentrating hormone receptor 1, sequence (Q99705 whole entry): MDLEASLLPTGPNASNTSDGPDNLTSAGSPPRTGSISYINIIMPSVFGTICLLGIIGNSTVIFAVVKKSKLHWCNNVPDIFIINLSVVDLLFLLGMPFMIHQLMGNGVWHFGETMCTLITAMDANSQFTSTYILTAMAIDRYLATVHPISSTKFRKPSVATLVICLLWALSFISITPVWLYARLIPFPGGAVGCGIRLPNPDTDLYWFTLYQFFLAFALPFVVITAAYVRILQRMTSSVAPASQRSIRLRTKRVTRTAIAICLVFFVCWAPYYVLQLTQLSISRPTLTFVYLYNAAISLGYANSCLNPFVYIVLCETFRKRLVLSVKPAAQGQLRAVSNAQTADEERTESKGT

Protein S100-A4 = Protein S100-A4 (Homo sapiens, UniProt P26447); assay: human S100A4 peptide interaction inhibition curves – biochemical, fluorescence polarization, cherry-picked hits, dose response (AID 687001); type: functional
Protein S100-A4, sequence (P26447 whole entry): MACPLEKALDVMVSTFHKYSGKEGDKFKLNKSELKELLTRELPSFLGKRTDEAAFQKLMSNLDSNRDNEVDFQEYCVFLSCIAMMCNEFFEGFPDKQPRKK

Nonstructural protein 1 = Nonstructural protein 1 (Influenza A virus, UniProt Q194T2); type: functional, Influenza A virus (A/California/07/2009(H1N1))
Nonstructural protein 1, sequence (Q194T2 whole entry): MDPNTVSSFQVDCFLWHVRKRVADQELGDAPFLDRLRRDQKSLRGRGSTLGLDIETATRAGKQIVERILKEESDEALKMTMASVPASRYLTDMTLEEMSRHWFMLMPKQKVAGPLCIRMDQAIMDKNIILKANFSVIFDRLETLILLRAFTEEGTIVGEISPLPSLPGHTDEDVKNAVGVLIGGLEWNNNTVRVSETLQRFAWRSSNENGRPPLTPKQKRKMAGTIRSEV

ELAV-like protein 1 = ELAV-like protein 1 (Homo sapiens, UniProt Q15717); assay: Identify HuR specific inhibitors.; type: functional
ELAV-like protein 1, sequence (Q15717 whole entry): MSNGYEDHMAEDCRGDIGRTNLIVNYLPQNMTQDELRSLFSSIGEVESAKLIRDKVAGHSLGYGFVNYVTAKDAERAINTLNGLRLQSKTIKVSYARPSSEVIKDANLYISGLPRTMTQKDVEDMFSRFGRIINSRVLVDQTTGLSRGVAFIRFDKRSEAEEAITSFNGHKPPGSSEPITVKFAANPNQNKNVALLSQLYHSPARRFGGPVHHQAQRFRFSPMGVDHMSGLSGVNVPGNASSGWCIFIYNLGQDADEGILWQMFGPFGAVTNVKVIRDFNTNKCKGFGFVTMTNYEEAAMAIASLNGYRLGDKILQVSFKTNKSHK

[9] = biological target: Protein disulfide-isomerase (Homo sapiens, UniProt P07237); assay: inhibition of PDI-driven insulin aggregation – biochemical, turbidity, absorbance, cherry-picked samples, dose response (AID 602350); type: functional
Protein disulfide-isomerase, sequence (P07237 whole entry): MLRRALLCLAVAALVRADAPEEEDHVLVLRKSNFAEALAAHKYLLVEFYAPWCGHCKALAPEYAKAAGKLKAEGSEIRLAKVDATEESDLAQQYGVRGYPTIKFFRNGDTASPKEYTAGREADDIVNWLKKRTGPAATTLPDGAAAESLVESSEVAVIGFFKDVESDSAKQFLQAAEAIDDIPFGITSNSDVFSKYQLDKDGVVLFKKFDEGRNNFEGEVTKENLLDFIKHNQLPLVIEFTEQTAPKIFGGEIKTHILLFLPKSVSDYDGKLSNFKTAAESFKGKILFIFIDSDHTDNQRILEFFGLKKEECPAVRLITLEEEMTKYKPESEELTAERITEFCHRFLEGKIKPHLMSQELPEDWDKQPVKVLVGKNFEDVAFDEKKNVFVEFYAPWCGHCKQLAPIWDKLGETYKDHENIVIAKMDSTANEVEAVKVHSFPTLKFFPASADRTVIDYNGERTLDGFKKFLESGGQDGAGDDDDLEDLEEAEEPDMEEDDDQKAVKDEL

Caspase-3 = biological target: T2, Caspase-3 (Homo sapiens, UniProt P42574); assay: inhibition of recombinant caspase-3 activity – biochemical, luminescence, set 2, selectivity assay for SENP protease inhibitor project, SAR follow-up (AID 588599); type: functional
T2 sequence (P42574 whole entry): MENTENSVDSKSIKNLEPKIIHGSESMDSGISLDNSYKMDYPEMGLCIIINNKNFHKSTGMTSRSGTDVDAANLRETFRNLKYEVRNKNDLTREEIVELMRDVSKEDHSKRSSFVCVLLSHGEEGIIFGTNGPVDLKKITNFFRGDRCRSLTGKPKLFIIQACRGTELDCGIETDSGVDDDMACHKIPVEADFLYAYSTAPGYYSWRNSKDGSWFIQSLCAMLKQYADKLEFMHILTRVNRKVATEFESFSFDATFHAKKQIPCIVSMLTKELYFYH

[10] = biological target: T3, Sentrin-specific protease 7 (Homo sapiens, UniProt Q9BQF6); assay: inhibition of human SENP7 cleavage activity – biochemical, luminescence, set 2, SAR follow-up (AID 588600); type: functional
T3 sequence (Q9BQF6 whole entry): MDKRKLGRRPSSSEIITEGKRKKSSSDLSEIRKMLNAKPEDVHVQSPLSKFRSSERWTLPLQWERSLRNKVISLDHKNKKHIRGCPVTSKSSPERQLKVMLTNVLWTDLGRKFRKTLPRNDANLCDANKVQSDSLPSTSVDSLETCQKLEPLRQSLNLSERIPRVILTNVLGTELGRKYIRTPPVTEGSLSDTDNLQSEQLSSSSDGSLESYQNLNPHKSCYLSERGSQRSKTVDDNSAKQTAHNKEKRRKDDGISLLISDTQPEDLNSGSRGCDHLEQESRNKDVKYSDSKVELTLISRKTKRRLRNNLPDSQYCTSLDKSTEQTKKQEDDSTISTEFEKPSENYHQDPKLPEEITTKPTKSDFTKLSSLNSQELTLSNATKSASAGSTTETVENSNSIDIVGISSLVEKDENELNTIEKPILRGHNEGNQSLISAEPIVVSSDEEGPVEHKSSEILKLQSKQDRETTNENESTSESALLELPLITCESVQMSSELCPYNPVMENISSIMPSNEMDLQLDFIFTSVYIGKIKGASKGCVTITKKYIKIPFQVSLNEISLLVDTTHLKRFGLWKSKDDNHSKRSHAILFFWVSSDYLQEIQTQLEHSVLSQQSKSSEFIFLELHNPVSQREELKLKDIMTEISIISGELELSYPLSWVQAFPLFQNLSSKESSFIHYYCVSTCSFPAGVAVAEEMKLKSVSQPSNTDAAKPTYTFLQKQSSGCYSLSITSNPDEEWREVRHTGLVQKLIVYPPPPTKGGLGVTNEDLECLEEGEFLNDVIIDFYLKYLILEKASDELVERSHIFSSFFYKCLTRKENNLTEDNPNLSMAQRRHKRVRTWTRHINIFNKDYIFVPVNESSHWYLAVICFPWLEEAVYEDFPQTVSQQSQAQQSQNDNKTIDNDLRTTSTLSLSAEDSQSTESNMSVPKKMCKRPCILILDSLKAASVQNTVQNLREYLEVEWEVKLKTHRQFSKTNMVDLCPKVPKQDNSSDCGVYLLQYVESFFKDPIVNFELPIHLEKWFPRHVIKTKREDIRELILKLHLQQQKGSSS

[11] = biological target: T4, Sentrin-specific protease 6 (Homo sapiens, UniProt Q9GZR1); assay: inhibition of human SENP6 catalytic domain – biochemical, luminescence, set 2, SAR follow-up (AID 588598); type: functional
T4 sequence (Q9GZR1 whole entry): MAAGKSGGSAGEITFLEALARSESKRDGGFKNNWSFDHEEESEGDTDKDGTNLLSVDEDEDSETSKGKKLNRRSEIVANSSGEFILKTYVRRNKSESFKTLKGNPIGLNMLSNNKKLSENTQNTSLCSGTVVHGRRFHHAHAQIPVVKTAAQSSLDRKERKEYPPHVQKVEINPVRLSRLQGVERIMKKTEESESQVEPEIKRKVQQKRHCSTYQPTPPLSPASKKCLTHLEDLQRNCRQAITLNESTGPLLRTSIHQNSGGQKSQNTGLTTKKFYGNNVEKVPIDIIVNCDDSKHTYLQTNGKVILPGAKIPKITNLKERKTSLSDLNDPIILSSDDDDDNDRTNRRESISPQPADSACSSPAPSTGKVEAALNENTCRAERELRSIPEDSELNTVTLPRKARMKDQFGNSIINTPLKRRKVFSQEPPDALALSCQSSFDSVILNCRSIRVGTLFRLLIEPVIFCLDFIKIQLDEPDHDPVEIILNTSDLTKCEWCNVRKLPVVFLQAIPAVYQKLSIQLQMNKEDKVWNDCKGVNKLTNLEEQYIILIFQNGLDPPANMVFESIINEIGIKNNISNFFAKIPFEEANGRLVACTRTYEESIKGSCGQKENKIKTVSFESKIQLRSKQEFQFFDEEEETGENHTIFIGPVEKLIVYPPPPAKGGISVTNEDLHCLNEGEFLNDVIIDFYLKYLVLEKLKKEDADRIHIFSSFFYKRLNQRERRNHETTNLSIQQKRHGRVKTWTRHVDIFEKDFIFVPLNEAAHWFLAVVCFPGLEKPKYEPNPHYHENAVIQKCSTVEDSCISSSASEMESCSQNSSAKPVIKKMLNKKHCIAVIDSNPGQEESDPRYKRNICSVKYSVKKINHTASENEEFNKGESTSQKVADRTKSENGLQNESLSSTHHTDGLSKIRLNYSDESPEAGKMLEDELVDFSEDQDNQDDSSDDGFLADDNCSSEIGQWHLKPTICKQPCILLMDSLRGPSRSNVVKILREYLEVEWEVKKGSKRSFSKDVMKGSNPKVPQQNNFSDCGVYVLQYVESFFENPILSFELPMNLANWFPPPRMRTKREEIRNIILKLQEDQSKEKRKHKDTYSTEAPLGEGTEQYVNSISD

[12] = biological target: T5, Sentrin-specific protease 8 (Homo sapiens, UniProt Q96LD8); assay: inhibition of sentrin protease 8 – biochemical, luminescence, set 2, SAR follow-up (AID 588601); type: functional
T5 sequence (Q96LD8 whole entry): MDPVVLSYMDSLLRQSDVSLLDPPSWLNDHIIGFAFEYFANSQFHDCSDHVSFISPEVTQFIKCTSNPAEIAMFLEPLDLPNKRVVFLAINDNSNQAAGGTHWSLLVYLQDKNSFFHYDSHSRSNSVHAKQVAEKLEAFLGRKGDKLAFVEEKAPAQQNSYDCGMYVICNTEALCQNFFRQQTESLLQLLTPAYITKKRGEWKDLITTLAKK

With `Cc1ccc(C(=O)O/N=C(\N)c2ccccn2)cc1` the AC50 (Paired box protein Pax-8) was 15.5 µM (active), the EC50 [1] was 0.994 µM (active) and the AC50 [2] was 0.06 µM (active). The EC50 [3] was 1.6 µM (active), the AC50 (H4 [4]) was 0.244 µM (active) and the AC50 [5] was 39 µM (active). The AC50 [6] was 29.9 µM (active) and the AC50 (H4 [7]) was 0.731 µM (active).

With `COc1ccc(Oc2c(Cl)cnn(Cc3ccccc3OC)c2=O)cc1` the IC50 [8] was 6.63 µM (active).

With `COc1cccc2c1C(=O)c1c(O)c3c(c(O)c1C2=O)CC(O)(C(C)=NO)CC3OC1CC(N)C(O)C(C)O1` (configuration not stated) the AC50 (Protein S100-A4) was 0.406 µM (active), the IC50 (Nonstructural protein 1) was 32 µM (active) and the IC50 (ELAV-like protein 1) was 21.7 µM (active). The AC50 [9] was 16.9 µM (active).

In the case of `Cc1ccc2nc(NC(=O)c3cccc(-n4cnnn4)c3)sc2c1`, the IC50 (Caspase-3) is reported as > 99 µM (inactive), the IC50 [10] is reported as > 99 µM (inactive) and the IC50 [11] is reported as > 99 µM (inactive). The IC50 [12] was > 99 µM (inactive).
